Assay results reported in patent US20050282818A1, “Ubiquitin ligase inhibitors” (Rigel Pharmaceuticals, Inc., priority 2004, published 2005).

Columns and labels:
[1] = target: T1, TRAF6/Uev1A/Ubc13 (Homo sapiens, UniProt Q9Y4K3); experiment: TRAF6/Uev1A/Ubc13 plate-based ubiquitin ligase assay; type: biochemical
T1 sequence (Q9Y4K3 1-522): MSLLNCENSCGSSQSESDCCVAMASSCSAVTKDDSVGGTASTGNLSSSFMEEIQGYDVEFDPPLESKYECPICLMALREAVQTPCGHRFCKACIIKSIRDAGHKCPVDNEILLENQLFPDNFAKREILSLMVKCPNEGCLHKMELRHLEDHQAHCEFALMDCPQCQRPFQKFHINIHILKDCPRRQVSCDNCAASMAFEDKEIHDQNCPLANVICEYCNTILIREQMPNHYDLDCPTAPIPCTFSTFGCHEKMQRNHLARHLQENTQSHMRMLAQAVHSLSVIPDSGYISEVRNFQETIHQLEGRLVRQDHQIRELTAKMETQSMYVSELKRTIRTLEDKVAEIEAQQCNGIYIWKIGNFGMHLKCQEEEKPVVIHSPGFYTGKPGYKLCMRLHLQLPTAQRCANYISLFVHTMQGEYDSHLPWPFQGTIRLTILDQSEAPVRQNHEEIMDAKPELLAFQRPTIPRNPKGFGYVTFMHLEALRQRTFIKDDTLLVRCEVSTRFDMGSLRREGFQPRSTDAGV
How it was run: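 Ligase activity was read as luminescence from anti-Flag/HRP detection of Flag-ubiquitin bound to casein-blocked Ni-plates alongside His-ubiquitin after a 1 h room-temperature reaction. Buffer: 62.5 mM Tris pH 7.5, 6.25 mM MgCl2, 1.0 mM DTT, 2 μM ATP; E1, Uev1a/Ubc13 and TRAF6 added last to start. IC50s derived across compound concentrations.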

[2] = tested on: ICAM-1 expression in A549 cells; experiment: ICAM assay (IL-1 induced ICAM-1/CD54 expression in A549 cells); type: cell-based, human; details: Homo sapiens, A549, ICAM assay
How it was run: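 Luminescent immunostaining (anti-CD54, then anti-mouse IgG, 1 h) quantifies ICAM-1 on A549 cells induced 4 h at 37° C by IL-1 (4 μl of 25 ng/ml added). Compound is added 1 h before the cytokine to cells plated overnight at 10,000 per well.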

[3] = target: APC11/APC2 (Homo sapiens, UniProt Q9NYG5+Q9UJX6); experiment: APC-11/APC-2 ligase assay (APC auto ubiquitination); type: biochemical; details: APC assay
Chain of APC11/APC2 (Q9NYG5 whole entry): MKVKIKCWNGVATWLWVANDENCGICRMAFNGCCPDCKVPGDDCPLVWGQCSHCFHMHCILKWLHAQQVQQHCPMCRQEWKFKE
Chain of APC11/APC2 (Q9UJX6 whole entry): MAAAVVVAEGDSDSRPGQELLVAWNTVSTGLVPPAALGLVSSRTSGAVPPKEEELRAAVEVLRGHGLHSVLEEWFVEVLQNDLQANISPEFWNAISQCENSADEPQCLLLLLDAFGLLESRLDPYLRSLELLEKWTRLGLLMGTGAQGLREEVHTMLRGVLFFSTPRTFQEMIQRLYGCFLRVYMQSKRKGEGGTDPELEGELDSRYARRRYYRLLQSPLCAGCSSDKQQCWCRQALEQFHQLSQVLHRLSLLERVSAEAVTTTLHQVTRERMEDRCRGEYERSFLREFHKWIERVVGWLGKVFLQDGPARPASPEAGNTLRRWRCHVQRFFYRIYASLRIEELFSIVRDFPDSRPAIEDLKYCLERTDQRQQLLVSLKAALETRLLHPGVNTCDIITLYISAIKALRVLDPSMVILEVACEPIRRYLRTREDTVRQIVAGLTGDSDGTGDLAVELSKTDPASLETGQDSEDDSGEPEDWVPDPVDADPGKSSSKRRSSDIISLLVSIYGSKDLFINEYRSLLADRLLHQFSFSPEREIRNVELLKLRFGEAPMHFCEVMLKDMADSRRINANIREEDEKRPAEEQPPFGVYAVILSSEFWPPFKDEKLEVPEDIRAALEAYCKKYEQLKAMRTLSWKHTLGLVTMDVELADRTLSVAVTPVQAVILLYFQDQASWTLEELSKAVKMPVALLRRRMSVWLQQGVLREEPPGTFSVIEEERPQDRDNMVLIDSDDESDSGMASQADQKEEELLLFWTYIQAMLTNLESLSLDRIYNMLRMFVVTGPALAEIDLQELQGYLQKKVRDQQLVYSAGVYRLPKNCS
Protocol: For the assays described below, the TRAF6/Uev1A/UBC13 assay is the biochemical plate-based assay of TRAF6 ligase activity using Ubc13 as the E2 enzyme. The gel-based assay is the biochemical solution-based TRAF6 ligase assay (by SDS-PAGE and Western blot) to confirm the plate-based ELISA assay. The APC assay is an assay which is another E3 ligase (APC2/APC11) biochemical assay.
E3 (His APC11/APC2— “APC”) auto ubiquitination was measured as described in U.S. patent application Ser. No. 09/826,312 (Publication No. U.S. 2002 0042083 A1), which is incorporated by reference in its entirety. Details of the protocol are described below. Activity in the presence of the compound was determined relative to a parallel control in which only DMSO was added. Values of the IC50 were typically determined using 6 or 8 different concentrations of the compound, although as few as 2 concentrations may be used to approximate the IC50 value.
Nickel coated 96 well plates (Pierce 15242) were blocked for 1 hour with 100 μl of blocking buffer at room temperature. The plates were washed 4 times with 225 μl of 1 […]PBS and 80 μl of the reaction buffer were added that contained 100 ng/well of Flag ubiquitin. To this, 10 μl of the test compound diluted in DMSO were added. After the test compound was added, 10 μl of E1 (human), E2 (Ubch5c), and APC in Protein Buffer was added to obtain a final concentration of 5 ng/well of E1, 20 ng/well of E2 and 100 ng/well of APC. The plates were shaken for 10 minutes and incubated at room temperature for 1 hour. After incubation, the plates were washed 4 times with 225 μl of 1×PBS and 100 μl/well of Antibody Mix were added to each well. The plates were incubated at room temperature for another hour after which they were washed 4 times with 225 μl of 1×PBS and 100 μl/well of Lumino substrate were added to each well. The luminescence was measured by using a BMG luminescence microplate reader. The Blocking Buffer (1% Casein in 1×PBS) was stored at 4° C. until use.
The reaction buffer consisted of 62.5 mM Tris pH 7.6 (Trizma Base—Sigma T 8524), 3 mM MgCl2 (Magnesium Chloride—Sigma M 2393), 1 mM DTT (Sigma D 9779), 2.5 mM ATP (Roche Boehringer Mann Corp. 635 316), 100 ng/well of Flag ubiquitin, 0.1% BSA (Sigma A 7906), and 0.05% Tween 20 (Sigma P 7949).
The Protein Buffer consisted of 20 mM Tris pH 7.6, 10% glycerol (Sigma G 5516) and 1 mM DTT.
The antibody mix consisted of 0.25% BSA (Sigma A 7906) in 1×PBS, 1/50,000 anti Flag (Sigma F 3165), 1/100,000 of anti Mouse IgG HRP (Jackson Imrunoresearch #115 035 146).
The substrate mix consisted of SuperSignal Substrate from Pierce (catalog number 37070ZZ) and was prepared by mixing 100 ml of the peroxide solution, 100 ml of the enhancer solution and 100 ml of Milli Q® water.

SMILES	IC50 [1]	IC50 [2]	IC50 [3]
Cc1cc(C)cc(-c2cc3nsnc3cc2F)c1 [compound 461, 5-(3,5-dimethylphenyl)-6-fluoro-2,1,3-benzthiadiazole]	≥ 20 µM	≥ 20 µM	≥ 20 µM
O=S(=O)(Nc1cccc2ccccc12)c1ccc(Cl)c2nonc12 [compound 392, 7-chloro-N-(naphthalen-1-yl)-2,1,3-benzoxadiazole-4-sulfonamide]	≥ 20 µM	1 to 20 µM	≥ 20 µM
COc1ccc(OC)c(NS(=O)(=O)c2ccc(N3CCOCC3)c3nonc23)c1 [compound 369, N-(2,5-dimethoxyphenyl)-7-(morpholin-4-yl)-2,1,3-benzoxadiazole-4-sulfonamide]	≥ 20 µM	≥ 20 µM	≥ 20 µM
Fc1c(N2CCOCC2)cc2nonc2c1F [compound 406, 4,5-difluoro-6-(morpholin-4-yl)-2,1,3-benzoxadiazole]	≥ 20 µM	≥ 20 µM	≥ 20 µM
Cc1cc2cc(NS(=O)(=O)c3ccc(Cl)c4nonc34)ccc2[nH]1 [compound 370, 7-chloro-N-(2-methyl-1H-indol-5-yl)-2,1,3-benzoxadiazole-4-sulfonamide]	≥ 20 µM	1 to 20 µM	≥ 20 µM
Fc1cc2nsnc2cc1-c1ccccc1 [compound 458, 5-fluoro-6-phenyl-2,1,3-benzthiadiazole]	≥ 20 µM	≥ 20 µM	≥ 20 µM
Fc1cc2nsnc2cc1-c1cccc2c1OCO2 [compound 460, 5-(benzodioxol-4-yl)-6-fluoro-2,1,3-benzthiadiazole]	≥ 20 µM	≥ 20 µM	≥ 20 µM
Nc1cccc2c(NS(=O)(=O)c3ccc(Cl)c4nonc34)cccc12 [compound 387, N-(5-aminonaphthalen-1-yl)-7-chloro-2,1,3-benzoxadiazole-4-sulfonamide]	≥ 20 µM	1 to 20 µM	≥ 20 µM
COc1cc(NS(=O)(=O)c2ccc(F)c3nonc23)c(OC)cc1Cl [compound 348, N-(4-chloro-2,5-dimethoxyphenyl)-7-fluoro-2,1,3-benzoxadiazole-4-sulfonamide]	≥ 20 µM	1 to 20 µM	≥ 20 µM
COCCNS(=O)(=O)c1ccc(Cl)c2nonc12 [compound 438, 7-chloro-N-(2-methoxyethyl)-2,1,3-benzoxadiazole-4-sulfonamide]	≥ 20 µM	≥ 20 µM	≥ 20 µM
O=[N+]([O-])c1ccc(Nc2ccccc2OC(F)(F)F)c2nonc12 [compound 373]	≥ 20 µM	1 to 20 µM	1 to 20 µM

Next, values leading:

IC50 [1]	IC50 [2]	IC50 [3]	SMILES
≥ 20 µM	1 to 20 µM	≥ 20 µM	COc1cccc(Nc2ccc3nonc3c2S(=O)(=O)Nc2cccc(OC)c2OC)c1OC [compound 408, N-(2,3-dimethoxyphenyl)-5-([2,3-dimethoxyphenyl]amino)-2,1,3-benzoxadiazole-4-sulfonamide]
1 to 20 µM	≥ 20 µM	1 to 20 µM	O=S(=O)(Nc1cccc(F)c1F)c1ccc(Sc2cccc3ccccc23)c2nonc12 [compound 379, N-(2,3-difluorophenyl)-7-(naphthalen-1-ylthio)-2,1,3-benzoxadiazole-4-sulfonamide]
≥ 20 µM	≥ 20 µM	≥ 20 µM	O=S(=O)(Nc1c(F)cc(F)cc1F)c1ccc(Cl)c2nonc12 [compound 357, 7-chloro-N-(2,4,6-trifluorophenyl)-2,1,3-benzoxadiazole-4-sulfonamide]
≥ 20 µM	1 to 20 µM	≥ 20 µM	Cc1cccc(C)c1NS(=O)(=O)c1ccc(Cl)c2nonc12 [compound 353, 7-chloro-N-(2,6-dimethylphenyl)-2,1,3-benzoxadiazole-4-sulfonamide]
≥ 20 µM	1 to 20 µM	≥ 20 µM	Nc1ccc(Nc2ccc3[nH]ncc3c2)c2nonc12 [compound 398, N-(1H-indazol-5-yl)-2,1,3-benzoxadiazole-4,7-diamine]
≥ 20 µM	≥ 20 µM	≥ 20 µM	Cc1cccc(-c2cc(C(F)(F)F)cc3nonc23)c1C [compound 473, 4-(2,3-dimethylphenyl)-6-(trifluoromethyl)-2,1,3-benzoxadiazole]
≥ 20 µM	≥ 20 µM	≥ 20 µM	COc1ccccc1C(=O)Nc1ccc(Nc2cccc(F)c2F)c2nonc12 [compound 403, N-(7-[{2,3-difluorophenyl}amino]-2,1,3-benzoxadiazol-4-yl)-2-methoxybenzamide]
≥ 20 µM	1 to 20 µM	≥ 20 µM	O=S(=O)(NCc1ccccn1)c1ccc(Cl)c2nonc12 [compound 446, 7-chloro-N-(pyridin-2-ylmethyl)-2,1,3-benzoxadiazole-4-sulfonamide]
1 to 20 µM	1 to 20 µM	1 to 20 µM	O=[N+]([O-])c1ccc(-c2ccc(Oc3ccccc3)cc2)c2nonc12 [compound 464, 4-nitro-7-(4-phenoxyphenyl)-2,1,3-benzoxadiazole]
≥ 20 µM	1 to 20 µM	≥ 20 µM	COc1ccc(-c2ccc([N+](=O)[O-])c3nonc23)cc1OC [compound 465, 4-(3,4-dimethoxyphenyl)-7-nitro-2,1,3-benzoxadiazole]
1 to 20 µM	1 to 20 µM	≥ 20 µM	COc1ccc(-c2ccc([N+](=O)[O-])c3nonc23)cc1 [compound 466, 4-(4-methoxyphenyl)-7-nitro-2,1,3-benzoxadiazole]
≥ 20 µM	≥ 20 µM	≥ 20 µM	Cc1cc(C)cc(-c2ccc(N)c3nonc23)c1 [compound 426, 7-(3,5-dimethylphenyl)-2,1,3-benzoxadiazol-4-amine]
1 to 20 µM	1 to 20 µM	1 to 20 µM	O=S(=O)(Nc1cccc2ccccc12)c1c(Cl)cc(Cl)c2nonc12 [compound 416, 5,7-dichloro-N-(naphthalen-1-yl)-2,1,3-benzoxadiazole-4-sulfonamide]
1 to 20 µM	1 to 20 µM	1 to 20 µM	O=S(=O)(Nc1cccc2ccccc12)c1c(Nc2cccc3ccccc23)cc(Cl)c2nonc12 [compound 415, 7-chloro-N-(naphthalen-1-yl)-5-(naphthalen-1-ylamino)-2,1,3-benzoxadiazole-4-sulfonamide]
1 to 20 µM	1 to 20 µM	1 to 20 µM	O=S(=O)(Nc1ccc(O)c2ccccc12)c1ccc(Cl)c2nonc12 [compound 393, 7-chloro-N-(4-hydroxynaphthalen-1-yl)-2,1,3-benzoxadiazole-4-sulfonamide]
